Assay results: patent publication US20250127907A1, “PARP INHIBITORS” (Stablix, Inc., priority 2023, published 2025)
Read-outs that look alike come from different tables or passages of the source.

How the values were obtained:
Assay type in all cases: cell-based
[1] = tested on: Poly/Mono-ADP Ribose in U2OS cells; test: PAR in cell western assay (parylation) in U2OS cells; settings: Homo sapiens, read-out: Parylation (U2OS)
Method: U2OS cells are seeded at 2667 cells per well in 24 ul medium into poly-D lysine-coated 384 well plate and incubated in the TC incubator for O/N
The next day, test comps are diluted in a source plate and 6 μL of the diluted comp is added to the cell plate; mixed well and incubated for 6 hrs. DNA damage is induced with 2 mM H2O2 for 10 min. After discarding the medium, cells are fixed in ice cold Methanol at for 20 min at −20C. After a wash step at room temperature, cells are permeabilized with 0.05% NP-40 in PBS for 10 min, followed by wash steps. Cells are blocked with 1% BSA, at room temperature for 1 hr. Cells are stained with anti mono/polyADP ribose antibody (E6F6A, Cell signaling, 1:5000) in 1×PBS/1% BSA/0.05% Tween o/n at 4C.
Next Day, cells are washed and incubated with anti-Rabbit 800CV (Licor antibody, 1:500) and CellTag 700 (Licor, 1:800) in 1×PBS/1% BSA/0.05% Tween for 1 h. After washing, plates are scanned using LICOR and are quantified.
Parylation inhibition is reported as % control inhibition.
(§1) The letter codes for the PARP1-enzyme assay include: A (<1 nM), B (>1-10 nM), C (>10-100 nM), D (>100-1000 nM), E (>1000 nM), and “-” is not tested. The letter codes for the PARP trapping assay, and parylation assay include: A (<10 nM), B (>10-100 nM), C (>100-1000 nM), […], E (>10000 nM), and “-” is not tested.

[2] = tested on: A2780 cells; test: Cell proliferation assay (A2780); settings: Homo sapiens, 168 h, 7 days
Method: (§2) Cells are counted, diluted to desired density and 40 μL of cell suspension is added into each 384-well tissue-culture treated plates. Plates are incubated in Tissue Culture incubator at 37° C./5% C02 overnight.
(§3) Next day, 40 nl test compounds that are prepared from source plates are transferred to the seeded cells from overnight. Plates are incubated at 37° C./5% C02 for a total of 7 days. After 7-day incubation, plates are equilibrated to room temperature and 30 ul of Cell Counting-Lite is added to each well for a 30 min incubation followed by reading on EnVision.
(§4) The letter codes for the cell proliferation assay in A2780, HCC1806, and MDA-MB-436 cells include: A (<10 nM), B (>10-100 nM), C (>100-1000 nM), D (>1000-10000 nM), E (>10000 nM), and “-” is not tested.

[3] = tested on: HCC1806 cells; test: Cell proliferation assay (HCC1806); settings: Homo sapiens, 168 h, 7 days
Method: as §2, §3, §4

[4] = tested on: MDA-MB-436 cells; test: Cell proliferation assay (MDA-MB-436); settings: Homo sapiens, 168 h, 7 days
Method: as §2, §3, §4

[5] = target: PARP1 (Homo sapiens, UniProt P09874); test: PARP trapping assay in U2OS cells; design: endogenous in cells; host or cells: U2OS; settings: U2OS cells, MMS, 4 hrs; read-out: PARP Trapping (U2OS)
Sequence of PARP1 (P09874 whole entry): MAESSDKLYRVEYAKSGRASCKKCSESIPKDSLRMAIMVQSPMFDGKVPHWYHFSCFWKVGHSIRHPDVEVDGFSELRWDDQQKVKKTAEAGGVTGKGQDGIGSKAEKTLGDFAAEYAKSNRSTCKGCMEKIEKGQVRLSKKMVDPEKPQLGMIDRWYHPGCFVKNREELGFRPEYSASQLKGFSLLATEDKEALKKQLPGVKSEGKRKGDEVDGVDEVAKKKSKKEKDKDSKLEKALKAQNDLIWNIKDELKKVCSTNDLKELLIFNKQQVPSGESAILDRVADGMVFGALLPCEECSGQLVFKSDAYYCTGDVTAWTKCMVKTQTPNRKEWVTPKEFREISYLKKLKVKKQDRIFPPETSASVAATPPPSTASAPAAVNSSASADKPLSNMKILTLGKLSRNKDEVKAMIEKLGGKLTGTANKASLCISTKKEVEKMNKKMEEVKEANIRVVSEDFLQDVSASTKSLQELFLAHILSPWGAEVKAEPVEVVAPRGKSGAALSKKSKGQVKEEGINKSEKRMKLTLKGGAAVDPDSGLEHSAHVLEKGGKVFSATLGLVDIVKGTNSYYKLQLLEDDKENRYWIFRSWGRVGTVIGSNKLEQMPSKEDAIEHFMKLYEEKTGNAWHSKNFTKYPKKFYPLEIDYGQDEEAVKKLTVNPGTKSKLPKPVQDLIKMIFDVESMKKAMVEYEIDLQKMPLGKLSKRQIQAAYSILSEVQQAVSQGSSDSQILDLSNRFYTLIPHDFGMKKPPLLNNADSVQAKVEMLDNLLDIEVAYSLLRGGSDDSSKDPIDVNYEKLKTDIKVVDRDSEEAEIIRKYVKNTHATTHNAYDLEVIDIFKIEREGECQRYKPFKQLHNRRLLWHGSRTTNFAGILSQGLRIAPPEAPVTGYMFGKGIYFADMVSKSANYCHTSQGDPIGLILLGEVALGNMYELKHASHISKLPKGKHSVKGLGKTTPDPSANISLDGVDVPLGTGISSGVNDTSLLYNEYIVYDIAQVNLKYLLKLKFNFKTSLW
Method: U2OS cells are seeded at 15,000 cells/well in 90 ul medium and incubated in the TC incubator for overnight.
Next day, test compounds are prepared in a source plate along with addition of DNA damage reagent MMS simultaneously and 10 ul of the diluted mixture is added to the cell plate and incubated for 4 hrs under T/C conditions.
After 4 hrs, following aspiration and washing, add 100 ul of cold cytoskeleton removal buffer (0.5% Triton X-100) and incubated for 10 min. At the end of incubation, slowly the buffer is removed, and cells are fixed with ice cold MeOH for 15 min at −20C. Followed by wash steps, cells are blocked with 1×PBS/3% BSA/0.05% Tween for 1 h at room temperature.
Cells are stained with anti PARP1 antibody (abeam ab227244, 1:1000), in 1×PBS/1% BSA overnight at 4C.
Wash and add DAPI, scan cells in Celigo.
Data Analysis: DAPI staining is used to segment nuclei and AF488 fluorescence intensity per nucleus is measured.
as §1

SMILES | IC50 ([1]; U2OS cells, 6 hrs, 2 mM H2O2) [nM] | IC50 [2] [nM] | IC50 [3] [nM] | IC50 [4] [nM] | IC50 [5] [nM] | IC50 ([1]; U2OS, 6 h) [nM]
CCc1cccc(-c2cnc(C(=O)NCCOCCNCC(=O)N3CCN(C(=O)c4cc(Cc5n[nH]c(=O)c6ccccc56)ccc4F)CC3)c(N)c2)c1 [Compound I-402] | 10 to 100 | 10 to 100 | 10 to 100 | < 10 | 100 to 1000 | 
CCc1cccc(-c2cnc(C(=O)NC34CCC(CN5CCN(CC(=O)N6CCN(C(=O)c7cc(Cc8n[nH]c(=O)c9ccccc89)ccc7F)CC6)CC5)(CC3)OC4)c(NC(C)=O)c2)c1 [Compound I-469] | 10 to 100 | 10 to 100 | 10 to 100 | < 10 | 10 to 100 | 
CCc1cccc(-c2cnc(C(=O)NC34CCC(CN5CCN(CC(=O)N6CCN(C(=O)c7cc(Cc8n[nH]c(=O)c9ccccc89)ccc7F)CC6)CC5)(CC3)OC4)c(N)c2)c1 [Compound I-470] | 100 to 1000 | 10 to 100 | 10 to 100 | < 10 | 10 to 100 | 
CCc1cccc(-c2cnc(C(=O)NCCOCCNCC(=O)N3CCN(C(=O)c4cc(Cc5n[nH]c(=O)c6ccccc56)ccc4F)CC3)c(C)c2)c1 [Compound I-489] | 10 to 100 | 10 to 100 | 100 to 1000 | < 10 | 100 to 1000 | 
O=C(CN1CCN(CC2CCN(C(=O)c3c(F)cc(-c4ccccc4)cc3F)CC2)CC1)N1CCN(C(=O)c2cc(Cc3n[nH]c(=O)c4ccccc34)ccc2F)CC1 [Compound I-635] | < 10 | < 10 | 10 to 100 | < 10 | 10 to 100 | 
CCc1cccc(-c2cc(F)c(C(=O)N3CC4CCC3CC4CN3CCN(CC(=O)N4CCN(C(=O)c5cc(Cc6n[nH]c(=O)c7ccccc67)ccc5F)CC4)CC3)c(F)c2)c1 (centres unmarked) [Compound I-690] | 10 to 100 | 100 to 1000 | 10 to 100 | < 10 | 10 to 100 | 
O=C(CN1CCN(CC2CCN(C(=O)c3c(F)cc(-c4cnccn4)cc3F)CC2)CC1)N1CCN(C(=O)c2cc(Cc3n[nH]c(=O)c4ccccc34)ccc2F)CC1 [Compound I-739] | < 10 | 100 to 1000 | 100 to 1000 | < 10 | 10 to 100 | 
O=C(CN1CCN(CC2CCN(C(=O)c3c(F)cc(-c4ccncn4)cc3F)CC2)CC1)N1CCN(C(=O)c2cc(Cc3n[nH]c(=O)c4ccccc34)ccc2F)CC1 [Compound I-768] | 10 to 100 | 100 to 1000 | 100 to 1000 | < 10 | 10 to 100 | 
O=C(CN1CCN(CC2CCN(C(=O)c3c(F)cc(-c4ccccn4)cc3F)CC2)CC1)N1CCN(C(=O)c2cc(Cc3n[nH]c(=O)c4ccccc34)ccc2F)CC1 [Compound I-769] | < 10 | 10 to 100 | 10 to 100 | < 10 | < 10 | 
O=C(CN1CCC(OC2CCN(C(=O)c3c(F)cc(-c4cccnn4)cc3F)CC2)CC1)N1CCN(C(=O)c2cc(Cc3n[nH]c(=O)c4ccccc34)ccc2F)CC1 [Compound I-771] | < 10 | 100 to 1000 | 100 to 1000 | < 10 | 10 to 100 | 
O=C(CN1CCC(OC2CCN(C(=O)c3c(F)cc(-c4ccnnc4)cc3F)CC2)CC1)N1CCN(C(=O)c2cc(Cc3n[nH]c(=O)c4ccccc34)ccc2F)CC1 [Compound I-772] | 10 to 100 | 100 to 1000 | 100 to 1000 | < 10 | < 10 | 
CCc1cccc(-c2cnc(C(=O)NC34CCC(CN5CCN(CC(=O)N6CCN(C(=O)c7cc(Cc8n[nH]c(=O)c9ccccc89)ccc7F)CC6)CC5)(CC3)OC4)c(NC(=O)OC(C)(C)C)c2)c1 [Compound I-800] | 100 to 1000 | 100 to 1000 | 100 to 1000 | < 10 | 10 to 100 | 
CC(C)(C)OC(=O)Nc1cc(-c2cccc(C3COC3)c2)cnc1C(=O)NCCOCCNCC(=O)N1CCN(C(=O)c2cc(Cc3n[nH]c(=O)c4ccccc34)ccc2F)CC1 [Compound I-803] | 10 to 100 | 10 to 100 | 100 to 1000 | < 10 | 100 to 1000 | 
CC(C)(C)OC(=O)Nc1cc(-c2cccc(C#N)c2)cnc1C(=O)NCCOCCNCC(=O)N1CCN(C(=O)c2cc(Cc3n[nH]c(=O)c4ccccc34)ccc2F)CC1 [Compound I-818] | 10 to 100 | 10 to 100 | 100 to 1000 | < 10 | 100 to 1000 | 
O=C(c1cc(Cc2n[nH]c(=O)c3ccccc23)ccc1F)N1CCN(C(=O)C2CC2)CC1 [Olaparib, reference compound] |  | 1000 to 10000 | 1000 to 10000 | 10 to 100 |  | < 10

Second part, the molecule after the results:

IC50 ([1]; U2OS cells, 6 hrs, 2 mM H2O2) [nM] | IC50 [2] [nM] | IC50 [3] [nM] | IC50 [4] [nM] | IC50 [5] [nM] | IC50 ([1]; U2OS, 6 h) [nM] | SMILES
10 to 100 | 10 to 100 | 100 to 1000 | < 10 | 100 to 1000 |  | CC(C)(F)C(=O)N1CCCC(c2cccc(C(=O)N[C@@H](C(=O)N3CCN(CC4CCN(CC(=O)N5CCN(C(=O)c6cc(Cc7n[nH]c(=O)c8ccccc78)ccc6F)CC5)CC4)CC3)C3CCCCC3)c2)C1 (some centres unmarked) [Compound I-528]
< 10 | < 10 | 10 to 100 | < 10 | 10 to 100 |  | CCc1cccc(-c2cc(F)c(C(=O)N3CCC(OC4CCN(CC(=O)N5CCN(C(=O)c6cc(Cc7n[nH]c(=O)c8ccccc78)ccc6F)CC5)CC4)CC3)c(F)c2)c1 [Compound I-590]
10 to 100 | 10 to 100 | 10 to 100 | < 10 | 10 to 100 |  | CC1(OC(=O)N[C@@H](C(=O)N2CCC(OC3CCN(CC(=O)N4CCN(C(=O)c5cc(Cc6n[nH]c(=O)c7ccccc67)ccc5F)CC4)CC3)CC2)C2CCCCC2)CCC1 [Compound I-749]
10 to 100 | 10 to 100 | 10 to 100 | < 10 | 10 to 100 |  | O=C(N[C@@H](C(=O)N1CCC(OC2CCN(CC(=O)N3CCN(C(=O)c4cc(Cc5n[nH]c(=O)c6ccccc56)ccc4F)CC3)CC2)CC1)C1CCCCC1)c1cccc(C2CCCN(C(=O)C34CC(F)(C3)C4)C2)c1F (some centres unmarked) [Compound I-750]
10 to 100 | 10 to 100 | 10 to 100 | < 10 | 10 to 100 |  | CC(C)(C)OC(=O)N1CCCC(c2cccc(Oc3cnnc(N4CCC(OC5CCN(CC(=O)N6CCN(C(=O)c7cc(Cc8n[nH]c(=O)c9ccccc89)ccc7F)CC6)CC5)CC4)c3)c2)C1 (centres unmarked) [Compound I-870]
10 to 100 | 100 to 1000 | 100 to 1000 | < 10 | 10 to 100 |  | CC(C)(C)OC(=O)N[C@@H](C(=O)N1CCC(C)(OC2CCN(CC(=O)N3CCN(C(=O)c4cc(Cc5n[nH]c(=O)c6ccccc56)ccc4F)CC3)CC2)CC1)C1CCCCC1 [Compound I-871]
100 to 1000 | 100 to 1000 | 100 to 1000 | < 10 | 100 to 1000 |  | CC(C)(C)OC(=O)N[C@@H](C(=O)N1CC[C@H](OC2CCN(CC(=O)N3CCN(C(=O)c4cc(Cc5n[nH]c(=O)c6ccccc56)ccc4F)CC3)CC2)C1)C1CCCCC1 [Compound I-875]
100 to 1000 | 10 to 100 | 10 to 100 | < 10 |  |  | CC(C)(C)C(=O)N1CCC[C@@](F)(c2cccc(C(=O)N[C@@H](C(=O)N3CCC(OC4CCN(CC(=O)N5CCN(C(=O)c6cc(Cc7n[nH]c(=O)c8ccccc78)ccc6F)CC5)CC4)CC3)C3CCCCC3)c2F)C1 [Compound I-994]
